The series in a line: dermal toxicity. The following applies: species and method not stated. The series is classed as in vivo.
As for `C1CCN([P+](N2CCCC2)(N2CCCC2)N2CCCC2)C1.[Cl-]` [tetrakis(pyrrolidino)phosphonium chloride], the dermal toxicity was around 390 mg/kg body weight.
Compound `C1CCN([P+](N2CCCCC2)(N2CCCCC2)N2CCCCC2)CC1.[Cl-]` [tetrakis(piperidino)phosphonium chloride] displayed a dermal toxicity of around 200 mg/kg body weight.
`CCN(CC)[P+](N(CC)CC)(N(CC)CC)N(CC)CC.[Br-]` [tetrakis(diethylamino)phosphonium bromide, reference compound] displayed a dermal toxicity below 50 mg/kg body weight.

For the origin of these results see patent publication US6407029B1, “Mixtures comprising tetrakis(pyrrolidino/piperdino)phosphonium salts” (priority 1999, dated 2002).
